{"source": "patent US20230115416A1", "about": "“COMPOSITIONS AND METHODS FOR PROMOTING CELLULAR METABOLIC FITNESS” (priority 2021, published 2023)", "key": {"[1]": {"assay": "Tinnitus side effect of CMF modulator treatment", "type": "in vivo, human"}, "NMDAR glutamate site": {"system": "NMDAR glutamate site", "conditions": "laboratory studies; cited from earlier work"}, "NMDAR": {"system": "NMDAR", "conditions": "by blocking adenosine receptor; cited from earlier work"}, "hair regrowth": {"system": "hair regrowth", "conditions": "topical petroleum jelly composition, up to 10% by weight, shaved skin of mice; cited from earlier work"}, "NMDAR glycine site": {"biological_target": "NMDAR glycine site (Homo sapiens, UniProt Q05586)", "assay": "Modulation of the NMDAR glycine site in embodiments", "conditions": "in embodiments of the invention"}}, "data": [{"smiles": "O=C1CC[C@@H](C(=O)O)N1", "note": "[pyroglutamic acid]", "values": [{"measurement": "tinnitus", "setting": "[1]; dosed orally", "value": "issues related to tinnitus have been observed"}, {"measurement": "modulation of the NMDAR glutamate site", "setting": "NMDAR glutamate site", "value": "negative modulator"}]}, {"smiles": "Cn1c(=O)c2c(ncn2C)n(C)c1=O", "note": "[Caffeine]", "values": [{"measurement": "NMDAR stimulation", "setting": "NMDAR", "value": "stimulates NMDAR at low micromolar concentrations"}]}, {"smiles": "N[C@@H](CCC(=O)O)C(=O)O", "note": "[glutamic acid]", "values": [{"measurement": "tinnitus", "setting": "[1]; dosed sublingually or topically", "value": "issues related to tinnitus have been observed"}, {"measurement": "rate of hair regrowth", "setting": "hair regrowth", "value": "increases the rate of hair regrowth"}]}, {"smiles": "NCCS(=O)(=O)O", "note": "[Taurine]", "values": [{"measurement": "modulation of the NMDAR glycine site", "setting": "NMDAR glycine site", "value": "stronger negative modulation effects"}]}]}
